Results reported in paper PMC12469831, “The Odorant-Binding Proteins AspiOBP1 and AspiOBP2 in Aleurocanthus spiniferus Are Involved in the Perception of Host Volatiles” (International Journal of Molecular Sciences, 2025).
Structures can show the parent of a compound that is named as a salt.

Biological target: T1, AspiOBP2
T1 construct: signal peptide removed; pET-30a(+) BamHI/EcoRI, E. coli BL21; His-tag kept; about 27 kDa predicted; clone primers encode mature start ETSTVDS and C-terminus PPPKP
Test: fluorescent probe titration, Scatchard
Format: binding, Aleurocanthus spiniferus
Details: 50 mmol/L Tris-HCl pH 7.4, 2 µmol/L protein, excitation 295 nm, His-tag kept

Kd: 2260 ± 470 nM
Compound: O=S(=O)(O)c1cccc2c(-c3ccc(Nc4ccccc4)c4c(S(=O)(=O)O)cccc34)ccc(Nc3ccccc3)c12 [bis-ANS, 4,4′-Dianilino-1,1′-binaphthyl-5,5′-disulfonic acid, dipotassium salt]
